Assay results as given in US10905123B2, “Herbicidal compounds” (Syngenta Participations AG, priority 2015, dated 2021).

Experiments:
Assay type in all cases: in vivo
Conditions in all cases: Rate 1000 g/ha; evaluated after 13 days
[1] = system: Alopecurus myosuroides (ALOMY); test: B1 pre-emergence herbicidal activity
Procedure: (§1) Seeds of a variety of test species were sown in standard soil in pots: Triticum aestivium (TRZAW), Oryza sativa (ORYSA), Avena fatua (AVEFA), Alopecurus myosuroides (ALOMY), Echinochloa crus-galli (ECHCG), Lolium perenne (LOLPE). After cultivation for one day (pre-emergence) under controlled conditions in a glasshouse (at 24/16° C., day/night; 14 hours light; 65% humidity), the plants were sprayed with an aqueous spray solution derived from the formulation of the technical active ingredient in acetone/water (50:50) solution containing 0.5% Tween 20 (polyoxyethelyene sorbitan monolaurate, CAS RN 9005-64-5). The test plants were then grown in a glasshouse under controlled conditions (at 24/16° C., day/night; 14 hours light; 65% humidity) and watered twice daily. After 13 days, the test was evaluated (5=total damage to plant; 0=no damage to plant).

[2] = system: Avena fatua (AVEFA); test: B1 pre-emergence herbicidal activity
Procedure: as §1

[3] = system: Echinochloa crus-galli (ECHCG); test: B1 pre-emergence herbicidal activity
Procedure: as §1

[4] = system: Lolium perenne (LOLPE); test: B1 pre-emergence herbicidal activity
Procedure: as §1

[5] = system: Oryza sativa (ORYSA); test: B1 pre-emergence herbicidal activity
Procedure: as §1

[6] = system: Triticum aestivium (TRZAW); test: B1 pre-emergence herbicidal activity
Procedure: as §1

[7] = system: Alopecurus myosuroides (ALOMY); test: B2 post-emergence herbicidal activity
Procedure: (§2) Seeds of a variety of test species were sown in standard soil in pots: Triticum aestivium (TRZAW), Oryza sativa (ORYSA), Avena fatua (AVEFA), Alopecurus myosuroides (ALOMY), Echinochloa crus-galli (ECHCG), Lolium perenne (LOLPE). After 8 days cultivation (post-emergence) under controlled conditions in a glasshouse (at 24/16° C., day/night; 14 hours light; 65% humidity), the plants were sprayed with an aqueous spray solution derived from the formulation of the technical active ingredient in acetone/water (50:50) solution containing 0.5% Tween 20 (polyoxyethelyene sorbitan monolaurate, CAS RN 9005-64-5). The test plants were then grown in a glasshouse under controlled conditions (at 24/16° C., day/night; 14 hours light; 65% humidity) and watered twice daily. After 13 days, the test was evaluated (5=total damage to plant; 0=no damage to plant).

[8] = system: Avena fatua (AVEFA); test: B2 post-emergence herbicidal activity
Procedure: as §2

[9] = system: Echinochloa crus-galli (ECHCG); test: B2 post-emergence herbicidal activity
Procedure: as §2

[10] = system: Lolium perenne (LOLPE); test: B2 post-emergence herbicidal activity
Procedure: as §2

[11] = system: Oryza sativa (ORYSA); test: B2 post-emergence herbicidal activity
Procedure: as §2

[12] = system: Triticum aestivium (TRZAW); test: B2 post-emergence herbicidal activity
Procedure: as §2

| Structure (SMILES) | Control of ALOMY after pre-emergence application (damage score 0-5) [1] | Control of AVEFA after pre-emergence application (damage score 0-5) [2] | Control of ECHCG after pre-emergence application (damage score 0-5) [3] | Control of LOLPE after pre-emergence application (damage score 0-5) [4] | Control of ORYSA after pre-emergence application (damage score 0-5) [5] | Control of TRZAW after pre-emergence application (damage score 0-5) [6] | Control of ALOMY after post-emergence application (damage score 0-5) [7] | Control of AVEFA after post-emergence application (damage score 0-5) [8] | Control of ECHCG after post-emergence application (damage score 0-5) [9] | Control of LOLPE after post-emergence application (damage score 0-5) [10] | Control of ORYSA after post-emergence application (damage score 0-5) [11] | Control of TRZAW after post-emergence application (damage score 0-5) [12] |
| --- | --- | --- | --- | --- | --- | --- | --- | --- | --- | --- | --- | --- |
| CN(C(=O)OC(C)(C)C)c1c(Cl)c(-c2cccnc2)nn1C [Compound A39] | 0 | 4 | 3 | 0 | 1 | 0 | 2 | 1 | 4 | 3 | 1 | 0 |
| Cc1nn(-c2cncnc2)cc1N(C)C(=O)NC1CCCCC1 [Compound A44] | 0 | 1 | 1 | 1 | 1 | 1 | 1 | 3 | 1 | 2 | 0 | 0 |
| CN(C(=O)Oc1ccccc1)c1cn(-c2cncc(F)c2)nc1C(F)(F)F [Compound A46] | 0 | 0 | 0 | 0 | 0 | 0 | 0 | 2 | 2 | 1 | 0 | 0 |
| CCOC(=O)N(C)c1cn(-c2cncc(F)c2)nc1C(F)(F)F [Compound A47] | 0 | 0 | 1 | 0 | 0 | 0 | 1 | 2 | 4 | 0 | 0 | 1 |
| CN(C(=O)OC(C)(C)C)c1cn(-c2cncc(F)c2)nc1C(F)(F)F [Compound A48] | 1 | 0 | 3 | 1 | 1 | 1 | 1 | 3 | 4 | 2 | 1 | 1 |
